Measured values from patent publication US6914045B2, “Glycopeptide antibiotics” (Wyeth Holdings Corporation, priority 2001, dated 2005).
In brackets after ≈: the same amount, converted by molar mass.

Columns and labels:
Experiment in all cases: in vitro antibacterial evaluation, MIC by broth dilution
Assay type in all cases: cell-based
[1] = tested on: Enterococcus sp.; conditions: broth dilution, 18 hours at 35° C.; for MIC Enterococcus faecalis (ATCC 29212): strain ATCC 29212; for MIC Enterococcus faecalis (GC 2242): strain GC 2242; for MIC Enterococcus faecium (GC 2243): strain GC 2243; for MIC Enterococcus faecalis (GC 2691): strain GC 2691; for MIC Enterococcus faecalis (GC 3059): strain GC 3059; for MIC Enterococcus faecalis (GC 4552): strain GC 4552; for MIC Enterococcus faecalis (GC 4553): strain GC 4553; for MIC Enterococcus faecalis (GC 4554): strain GC 4554; for MIC Enterococcus faecium (GC 4556): strain GC 4556; for MIC Enterococcus faecium (GC 4557): strain GC 4557; for MIC Enterococcus avium (GC 4558): strain GC 4558; for MIC Enterococcus faecalis (GC 6189): strain GC 6189
In short: (§1)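 Test organisms, which included recent clinical isolates resistant to methicillin, penicillin and/or vancomycin, were inoculated at 5×10^5 CFU/mL into Muller-Hinton II […] containing antibiotic at 64-0.06 μg/mL. Minimum inhibitory concentrations were then read as the lowest level inhibiting growth.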

[2] = tested on: Staphylococcus sp.; conditions: broth dilution, 18 hours at 35° C.; for MIC Staphylococcus aureus (GC 1131): strain GC 1131
In short: as §1

[3] = tested on: Escherichia coli
In short: as §1

[4] = tested on: Streptococcus sp.; conditions: broth dilution, 18 hours at 35° C.; for MIC Streptococcus pneumoniae (ATCC 6301): strain ATCC 6301; for MIC Streptococcus pneumoniae (GC 1894): strain GC 1894; for MIC Streptococcus pyogenes (GC 4563): strain GC 4563; for MIC Streptococcus agalactiae (GC 4564): strain GC 4564; for MIC Streptococcus pneumoniae (GC 4565): strain GC 4565
In short: as §1

For CC(c1ccccc1)C1NC(=O)CNC(=O)C(CO)NC(=O)C(C(O)C2CNC(=N)N2C2OC(CO)C(O)C(O)C2O)NC(=O)C(C(O)C2CNC(=N)N2)NC(=O)C(Cc2ccc(OC3OC(CO)C(OC4OC5COC(c6cccc(Oc7ccccc7)c6)OC5C(O)C4O)C(O)C3O)cc2)NC1=O (centres unmarked) [Example 170], the “MIC Enterococcus faecalis (ATCC 29212)” value ([1]; inoculum 5×10^5 CFU/mL) was 4 µg/mL (≈ 2.71 µM), the “MIC Enterococcus faecalis (GC 2242)” value ([1]; inoculum 5×10^5 CFU/mL) was 4 µg/mL (≈ 2.71 µM) and the “MIC Enterococcus faecium (GC 2243)” value ([1]; inoculum 5×10^5 CFU/mL) was 4 µg/mL (≈ 2.71 µM). The “MIC Enterococcus faecalis (GC 2691)” value ([1]; inoculum 5×10^5 CFU/mL) was 4 µg/mL (≈ 2.71 µM), the “MIC Enterococcus faecalis (GC 3059)” value ([1]; inoculum 5×10^5 CFU/mL) was 4 µg/mL (≈ 2.71 µM) and the “MIC Enterococcus faecalis (GC 4552)” value ([1]; inoculum 5×10^5 CFU/mL) was 4 µg/mL (≈ 2.71 µM). The “MIC Enterococcus faecalis (GC 4553)” value ([1]; inoculum 5×10^5 CFU/mL) was 4 µg/mL (≈ 2.71 µM), the “MIC Enterococcus faecalis (GC 4554)” value ([1]; inoculum 5×10^5 CFU/mL) was 2 µg/mL (≈ 1.36 µM) and the “MIC Enterococcus faecium (GC 4556)” value ([1]; inoculum 5×10^5 CFU/mL) was 4 µg/mL (≈ 2.71 µM). The “MIC Enterococcus faecium (GC 4557)” value ([1]; inoculum 5×10^5 CFU/mL) was 4 µg/mL (≈ 2.71 µM), the “MIC Enterococcus avium (GC 4558)” value ([1]; inoculum 5×10^5 CFU/mL) was 4 µg/mL (≈ 2.71 µM) and the “MIC Enterococcus faecalis (GC 6189)” value ([1]; inoculum 5×10^5 CFU/mL) was 4 µg/mL (≈ 2.71 µM). For the same compound, the “MIC Enterococcus faecalis (ATCC 29212)” value [1] was 4 µg/mL (≈ 2.71 µM), the “MIC Enterococcus faecalis (GC 2242)” value [1] was 4 µg/mL (≈ 2.71 µM) and the “MIC Enterococcus faecium (GC 2243)” value [1] was 4 µg/mL (≈ 2.71 µM). The “MIC Enterococcus faecalis (GC 2691)” value [1] was 4 µg/mL (≈ 2.71 µM), the “MIC Enterococcus faecalis (GC 3059)” value [1] was 4 µg/mL (≈ 2.71 µM) and the “MIC Enterococcus faecalis (GC 4552)” value [1] was 4 µg/mL (≈ 2.71 µM). For the same compound, the “MIC Enterococcus faecalis (GC 4553)” value [1] was 4 µg/mL (≈ 2.71 µM), the “MIC Enterococcus faecalis (GC 4554)” value [1] was 2 µg/mL (≈ 1.36 µM) and the “MIC Enterococcus faecium (GC 4556)” value [1] was 4 µg/mL (≈ 2.71 µM). For the same compound, the “MIC Enterococcus faecium (GC 4557)” value [1] was 4 µg/mL (≈ 2.71 µM), the “MIC Enterococcus avium (GC 4558)” value [1] was 4 µg/mL (≈ 2.71 µM) and the “MIC Enterococcus faecalis (GC 6189)” value [1] was 4 µg/mL (≈ 2.71 µM). The “MIC Staphylococcus aureus (GC 1131)” value ([2]; inoculum 5×10^5 CFU/mL) was 4 µg/mL (≈ 2.71 µM), the “MIC Staphylococcus aureus (ATCC 29213)” value ([2]; strain ATCC 29213) was 4 µg/mL (≈ 2.71 µM) and the “MIC Staphylococcus aureus (GC 1131)” value [2] was 4 µg/mL (≈ 2.71 µM). The “MIC Staphylococcus aureus (GC 3051)” value ([2]; strain GC 3051) was 4 µg/mL (≈ 2.71 µM), the “MIC Staphylococcus aureus (GC 3053)” value ([2]; strain GC 3053) was 1 µg/mL (≈ 0.678 µM) and the “MIC Staphylococcus aureus (GC 4541)” value ([2]; strain GC 4541) was 2 µg/mL (≈ 1.36 µM). The “MIC Staphylococcus aureus (GC 4542)” value ([2]; strain GC 4542) was 4 µg/mL (≈ 2.71 µM), the “MIC Staphylococcus aureus-SMITH (GC 4543)” value ([2]; strain GC 4543) was 4 µg/mL (≈ 2.71 µM) and the “MIC Staphylococcus aureus (GC 4544)” value ([2]; strain GC 4544) was 2 µg/mL (≈ 1.36 µM). For the same compound, the “MIC Staphylococcus aureus (GC 4545)” value ([2]; strain GC 4545) was 4 µg/mL (≈ 2.71 µM), the “MIC Staphylococcus haemolyticus (GC 4546)” value ([2]; strain GC 4546) was 8 µg/mL (≈ 5.42 µM) and the “MIC Coagulase Negative Staphylococcus (GC 4547)” value ([2]; strain GC 4547) was 4 µg/mL (≈ 2.71 µM). The “MIC Coagulase Negative Staphylococcus (GC 4548)” value ([2]; strain GC 4548) was 1 µg/mL (≈ 0.678 µM), the “MIC Coagulase Negative Staphylococcus (GC 4549)” value ([2]; strain GC 4549) was 2 µg/mL (≈ 1.36 µM) and the “MIC Coagulase Negative Staphylococcus (GC 4551)” value ([2]; strain GC 4551) was 1 µg/mL (≈ 0.678 µM). For the same compound, the “MIC Coagulase Negative Staphylococcus (GC 6257)” value ([2]; strain GC 6257) was 1 µg/mL (≈ 0.678 µM), the “MIC Escherichia coli (ATCC 25922)” value ([3]; strain ATCC 25922, 18 hours at 35° C.) was greater than 64 µg/mL and the “MIC Escherichia coli (GC 4559)” value ([3]; strain GC 4559, 18 hours at 35° C.) was greater than 64 µg/mL. For the same compound, the “MIC Escherichia coli (GC 4560)” value ([3]; strain GC 4560, 18 hours at 35° C.) was 4 µg/mL (≈ 2.71 µM), the “MIC Streptococcus pneumoniae (ATCC 6301)” value ([4]; inoculum 5×10^5 CFU/mL) was less than 0.06 µg/mL and the “MIC Streptococcus pneumoniae (GC 1894)” value ([4]; inoculum 5×10^5 CFU/mL) was less than 0.06 µg/mL. For the same compound, the “MIC Streptococcus pyogenes (GC 4563)” value ([4]; inoculum 5×10^5 CFU/mL) was less than 0.06 µg/mL, the “MIC Streptococcus agalactiae (GC 4564)” value ([4]; inoculum 5×10^5 CFU/mL) was less than 0.06 µg/mL and the “MIC Streptococcus pneumoniae (GC 4565)” value ([4]; inoculum 5×10^5 CFU/mL) was less than 0.06 µg/mL. For the same compound, the “MIC Streptococcus pneumoniae (ATCC 6301)” value [4] was less than 0.06 µg/mL, the “MIC Streptococcus pneumoniae (GC 1894)” value [4] was less than 0.06 µg/mL and the “MIC Streptococcus pyogenes (GC 4563)” value [4] was less than 0.06 µg/mL. The “MIC Streptococcus agalactiae (GC 4564)” value [4] was less than 0.06 µg/mL and the “MIC Streptococcus pneumoniae (GC 4565)” value [4] was less than 0.06 µg/mL.
